In patent US20180099931A1 (AbbVie S.à.r.l., priority 2016, published 2018):
Like-named read-outs stand apart in the source and are kept apart here.

Target: T1, F508delCFTR (Homo sapiens, UniProt P13569, DEL508-508)
T1 construct: expressed in transfected cells; host or cells: CFBE41o- human lung-derived epithelial cells (CFBE4lo-F508delCFTR-HRP), doxycycline-inducible
Test: Cell Surface Expression-Horse Radish Peroxidase (CSE-HRP) Assay;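 as to Maximum % activity (with co-corrector): co-corrector and positive control are both the same reference corrector at 2 µM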;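 as to Maximum % activity (without co-corrector): percent of the 2 µM on-plate positive control corrector response above DMSO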
Type: cell-based
Conditions: for Maximum % activity (with co-corrector) / Emax: maximum at any tested concentration, normalized to on-plate positive control; for Emax: read-out: Maximum % activity (without co-corrector)
Experimental: Cell Surface Expression-Horse Radish Peroxidase (CSE-HRP) Assay;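 as to Maximum % activity (with co-corrector): co-corrector and positive control are both the same reference corrector at 2 µM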;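 as to Maximum % activity (without co-corrector): percent of the 2 µM on-plate positive control corrector response above DMSO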
The development was achieved by expressing the F508delCFTR mutation along with a horseradish peroxidase (HRP) in the fourth exofacial loop, and then measuring the HRP activity using luminescence readout from these cells, CFBE4lo-F508delCFTR-HRP, that were incubated overnight with the test corrector compounds, either without or with the co-corrector. […] The test compounds were then added either without or with a co-corrector at the required concentrations and further incubated for 18-24 hours at 33° C. The highest concentration tested was 20 μM with an 8-point concentration response curve using a 3-fold dilution in both the test compound without or with the co-corrector. Three replicate plates were run to determine one EC50. All plates contained negative controls (dimethyl sulfoxide, DMSO) and positive control (2 μM of 3-[(2R,4R)-4-({[1-(2,2-difluoro-1,3-benzodioxol-5-yl)cyclopropyl]carbonyl}amino)-7-methoxy-3,4-dihydro-2H-chromen-2-yl]benzoic acid) as well as on-plate concentration response of the positive control. […] The raw counts from the experiment were analyzed using Accelrys® Assay Explorer v3.3.
1−[3*SDPositive Control+3*SDNegative Control/Absolute(MeanPositive Control−MeanNegative Control)]
wherein “SD” is standard deviation.
The % activity measured at each of the 8 test concentrations of the test compound added either without or with a co-corrector (2 μM of 3-[(2R,4R)-4-({[1-(2,2-difluoro-1,3-benzodioxol-5-yl)cyclopropyl]carbonyl}amino)-7-methoxy-3,4-dihydro-2H-chromen-2-yl]benzoic acid) was normalized to the on-plate positive control using the following formulae:
% activity(Test compound without co-corrector)=[(test compound without co-corrector response−DMSO response)/(positive control response−DMSO response)]*100
% activity(Test compound with co-corrector)=[(test compound with co-corrector response−DMSO response)/(positive control response−DMSO response)]*100
The maximum % activity achieved for the test compound either without or with a co-corrector at any tested concentration is presented in Table 4 along with the respective EC50's calculated using the following general sigmoidal curve with variable Hill slope equation (described as Model 42 in the Accelrys® Assay Explorer v3.3 software):
General sigmoidal curve with concentration, response, top, bottom, EC50 and Hill slope. This model describes a sigmoidal curve with an adjustable baseline, a. The equation can be used to fit curves where response is either increasing or decreasing with respect to the independent variable, “x”.
“x” is a concentration of drug under test. “y” is the response. “a” is the maximum response, and “d” is the minimum response “c” is the inflection point (EC50) for the curve. That is, “y” is halfway between the lower and upper asymptotes when x=c. “b” is the slope-factor or Hill coefficient. The sign of b is positive when the response increases with increasing dose and is negative when the response decreases with increasing dose (inhibition).

[1] = test compound without co-corrector, read-out: EC50 (without co-corrector)
[2] = with co-corrector (2 μM of 3-[(2R,4R)-4-({[1-(2,2-difluoro-1,3-benzodioxol-5-yl)cyclopropyl]carbonyl}amino)-7-methoxy-3,4-dihydro-2H-chromen-2-yl]benzoic acid), read-out: EC50 (with co-corrector)
[3] = test compound without co-corrector
[4] = with co-corrector (2 μM of 3-[(2R,4R)-4-({[1-(2,2-difluoro-1,3-benzodioxol-5-yl)cyclopropyl]carbonyl}amino)-7-methoxy-3,4-dihydro-2H-chromen-2-yl]benzoic acid)
[5] = CSE-HRP, test compound without co-corrector, read-out: EC50 (without co-corrector)
[6] = CSE-HRP, with co-corrector (2 μM of 3-[(2R,4R)-4-({[1-(2,2-difluoro-1,3-benzodioxol-5-yl)cyclopropyl]carbonyl}amino)-7-methoxy-3,4-dihydro-2H-chromen-2-yl]benzoic acid), read-out: EC50 (with co-corrector)
[7] = CSE-HRP, with co-corrector (2 μM)

T1 sequence (P13569 with tags, fused parts or gaps DEL508-508): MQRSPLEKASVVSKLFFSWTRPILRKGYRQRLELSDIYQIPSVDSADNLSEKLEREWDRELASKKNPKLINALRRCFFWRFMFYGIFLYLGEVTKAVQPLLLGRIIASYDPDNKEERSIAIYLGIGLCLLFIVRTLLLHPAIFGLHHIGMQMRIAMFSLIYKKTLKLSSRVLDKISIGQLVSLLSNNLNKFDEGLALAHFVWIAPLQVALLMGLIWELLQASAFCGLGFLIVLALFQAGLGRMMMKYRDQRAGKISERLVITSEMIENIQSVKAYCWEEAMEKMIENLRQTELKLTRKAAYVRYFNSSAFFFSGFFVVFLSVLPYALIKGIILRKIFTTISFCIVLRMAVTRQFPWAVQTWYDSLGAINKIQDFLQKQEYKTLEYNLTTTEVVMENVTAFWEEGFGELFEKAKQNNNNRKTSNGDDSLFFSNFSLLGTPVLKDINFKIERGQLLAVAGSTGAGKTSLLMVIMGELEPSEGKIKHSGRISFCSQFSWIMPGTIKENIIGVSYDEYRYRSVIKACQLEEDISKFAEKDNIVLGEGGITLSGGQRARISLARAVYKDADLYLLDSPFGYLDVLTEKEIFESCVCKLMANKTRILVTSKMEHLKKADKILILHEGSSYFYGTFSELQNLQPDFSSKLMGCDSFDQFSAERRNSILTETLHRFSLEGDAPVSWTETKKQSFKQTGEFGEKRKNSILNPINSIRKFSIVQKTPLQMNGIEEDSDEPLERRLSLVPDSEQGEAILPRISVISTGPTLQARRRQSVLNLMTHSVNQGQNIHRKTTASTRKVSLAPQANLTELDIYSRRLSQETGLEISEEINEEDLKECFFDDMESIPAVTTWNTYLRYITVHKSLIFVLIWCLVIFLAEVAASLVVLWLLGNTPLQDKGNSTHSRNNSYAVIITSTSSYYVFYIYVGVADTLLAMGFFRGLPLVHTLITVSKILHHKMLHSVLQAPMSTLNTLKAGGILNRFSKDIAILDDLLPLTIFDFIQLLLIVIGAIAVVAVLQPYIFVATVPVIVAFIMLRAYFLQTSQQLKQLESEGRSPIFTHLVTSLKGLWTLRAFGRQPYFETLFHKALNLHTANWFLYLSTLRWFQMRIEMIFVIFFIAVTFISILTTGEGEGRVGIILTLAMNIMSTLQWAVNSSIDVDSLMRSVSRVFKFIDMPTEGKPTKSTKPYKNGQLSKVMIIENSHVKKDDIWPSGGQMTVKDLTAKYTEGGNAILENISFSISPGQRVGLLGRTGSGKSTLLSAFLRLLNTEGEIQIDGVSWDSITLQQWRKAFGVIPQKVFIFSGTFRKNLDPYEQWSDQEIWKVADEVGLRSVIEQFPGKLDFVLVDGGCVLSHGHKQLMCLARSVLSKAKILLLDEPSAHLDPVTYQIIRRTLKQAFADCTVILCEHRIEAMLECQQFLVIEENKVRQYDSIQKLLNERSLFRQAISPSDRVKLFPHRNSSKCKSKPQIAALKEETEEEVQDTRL

| Compound | EC50 [1] | EC50 [2] | Maximum % activity (with co-corrector) (with co-corrector (2 μM)) | Emax (without co-corrector) | Emax [3] | Maximum % activity (with co-corrector) [4] | EC50 [5] | EC50 [6] | Maximum % activity (with co-corrector) [7] | Emax (CSE-HRP, without co-corrector) |
| --- | --- | --- | --- | --- | --- | --- | --- | --- | --- | --- |
| COc1ncc(C(F)(F)F)cc1CN[C@H]1[C@H](C(C)(C)C)[C@@H](C(=O)O)N(C(=O)[C@@H]2CCCO2)[C@H]1c1ccccc1C(C)C [Example 95, (2S,3S,4S,5S)-3-tert-butyl-4-({[2-methoxy-5-(trifluoromethyl)pyridin-3-yl]methyl}amino)-1-[(2S)-oxolane-2-carbonyl]-5-[2-(propan-2-yl)phenyl]pyrrolidine-2-carboxylic acid] | < 1000 nM | < 1000 nM | +++ (≥350) | > 200% | – | – | – | – | – | – |
| COc1ccc(C(C)(C)C)cc1CN[C@H]1[C@H](C(C)(C)OC)[C@@H](C(=O)O)N(C(=O)C2CCCCC2)[C@H]1c1cccnc1OC [Example 40, (2S,3S,4S,5S)-4-{[(5-tert-butyl-2-methoxyphenyl)methyl]amino}-1-(cyclohexanecarbonyl)-3-(2-methoxypropan-2-yl)-5-(2-methoxypyridin-3-yl)pyrrolidine-2-carboxylic acid] | 1000 to 10000 nM | 1000 to 10000 nM | +++ (≥350) | > 200% | – | – | – | – | – | – |
| COc1ncc(C2CCC2)cc1CN[C@H]1[C@H](C(C)(C)C)[C@@H](C(=O)O)N(C(=O)OC(C)C)[C@H]1c1ccccc1C(C)C [Example 68, (2S,3S,4S,5S)-3-tert-butyl-4-{[(5-cyclobutyl-2-methoxypyridin-3-yl)methyl]amino}-1-{[(propan-2-yl)oxy]carbonyl}-5-[2-(propan-2-yl)phenyl]pyrrolidine-2-carboxylic acid] | 1000 to 10000 nM | < 1000 nM | +++ (≥350) | > 200% | – | – | – | – | – | – |
| CC(C)(C)c1ccc(CN[C@H]2[C@H](C(C)(C)C)[C@@H](C(=O)O)N(C(=O)[C@@H]3CCCC(F)(F)C3)[C@H]2c2ccccc2)c(Cl)n1 [Example I-247] | 1000 to 10000 nM | 1000 to 10000 nM | +++ (≥350) | < 100% | – | – | – | – | – | – |
| COc1ccc(C(C)(C)C)cc1CN[C@H]1[C@H](C(C)(C)C)[C@@H](C(=O)O)N(C(=O)C2(C)CCc3cc(C)ccc32)[C@H]1c1ccccc1 (some centres unmarked) [Example I-147] | 1000 to 10000 nM | 1000 to 10000 nM | +++ (≥350) | < 100% | – | – | – | – | – | – |
| COc1ccc(C(C)(C)C)cc1CN[C@H]1[C@H](C(C)(C)C)[C@@H](C(=O)O)N(C(=O)OC(C)(C)C)[C@H]1c1cccnc1OC [Example I-232] | 1000 to 10000 nM | 1000 to 10000 nM | +++ (≥350) | > 200% | – | – | – | – | – | – |
| COc1nc(C(C)(C)C)ccc1CN[C@H]1[C@H](C(C)(C)C)[C@@H](C(=O)O)N(C(=O)OC(C)C)[C@H]1c1ccccc1C(C)C [Example I-216] | < 1000 nM | < 1000 nM | +++ (≥350) | > 200% | – | – | – | – | – | – |
| CC(C)(C)[C@H]1[C@H](Nc2cccc(C(F)(F)F)c2)[C@H](c2ccccc2)N(C(=O)C2CCCCC2)[C@@H]1C(=O)O [Example I-56] | < 1000 nM | < 1000 nM | +++ (≥350) | < 100% | – | – | – | – | – | – |

Further lines, results first:

| EC50 [1] | EC50 [2] | Maximum % activity (with co-corrector) (with co-corrector (2 μM)) | Emax (without co-corrector) | Emax [3] | Maximum % activity (with co-corrector) [4] | EC50 [5] | EC50 [6] | Maximum % activity (with co-corrector) [7] | Emax (CSE-HRP, without co-corrector) | Compound |
| --- | --- | --- | --- | --- | --- | --- | --- | --- | --- | --- |
| 1000 to 10000 nM | 1000 to 10000 nM | – | – | 100 to 200% | +++ (≥350) | – | – | – | – | COc1ccc(C(F)(F)F)cc1CN[C@H]1[C@H](C(C)(C)C)[C@@H](C(=O)O)N(C(=O)[C@H](C)c2ccccc2)[C@H]1c1cccnc1OC [II-541] |
| 1000 to 10000 nM | 1000 to 10000 nM | – | – | < 100% | ++ (≥150 and <350) | – | – | – | – | Cc1cc(C(F)(F)F)cc(N[C@H]2[C@H](C(C)(C)C)[C@@H](C(=O)O)N(C(=O)C3CCCCO3)[C@H]2c2cccnc2N(C)C)n1 (relative stereo) [II-504] |
| – | – | – | – | – | – | < 1000 nM | 1000 to 10000 nM | +++ (≥350) | < 100% | CC(C)(C)[C@H]1[C@H](NCc2ccc(Cl)cc2Cl)[C@H](c2ccccc2)N(C(=O)C2CCCCC2)[C@@H]1C(=O)O [II-113] |
| > 10000 nM | 1000 to 10000 nM | – | – | < 100% | ++ (≥150 and <350) | – | – | – | – | CC(C)(C)[C@@H]1[C@@H](Nc2cc(C(F)(F)F)cc[n+]2[O-])[C@@H](c2ccccc2)N(C(=O)C2CCCCC2)[C@H]1C(=O)O (racemic) [III-31] |
| 1000 to 10000 nM | 1000 to 10000 nM | – | – | < 100% | ++ (≥150 and <350) | – | – | – | – | Cc1cc(C(F)(F)F)cc(N[C@H]2[C@H](C(C)(C)C)[C@@H](C(=O)O)N(C(=O)C3CCCCC3C(F)(F)F)[C@H]2c2cccnc2N(C)C)n1 (some centres unmarked) [II-502] |
| 1000 to 10000 nM | 1000 to 10000 nM | +++ (≥350) | – | > 200% | – | – | – | – | – | CCC(C)(C)c1ccc(OC)c(CN[C@H]2[C@H](C(C)(C)C)[C@@H](C(=O)O)N(C(=O)OC(C)C)[C@H]2c2cccnc2N(C)C)c1 [III-232] |
| – | – | – | – | – | – | 1000 to 10000 nM | 1000 to 10000 nM | +++ (≥350) | 100 to 200% | COc1ncccc1CN[C@@H]1[C@@H](C(C)(C)C)[C@H](C(=O)O)N(C(=O)C2CCCCC2)[C@@H]1c1ccccc1 (racemic) [II-6] |
| 1000 to 10000 nM | < 1000 nM | – | – | 100 to 200% | +++ (≥350) | – | – | – | – | COc1ncc(-c2ccc(F)cc2C)cc1CN[C@H]1[C@H](C(C)(C)C)[C@@H](C(=O)O)N(C(=O)C2CCCCC2)[C@H]1c1cccnc1N(C)C [II-409] |
| – | – | – | – | – | – | 1000 to 10000 nM | 1000 to 10000 nM | ++ (≥150 and <350) | < 100% | COc1ccc(C(F)(F)F)cc1CN[C@@H]1[C@@H](C(C)(C)C)[C@H](C(=O)O)N(C(=O)C2CCC3(CC2)CC3)[C@@H]1c1ccccc1 (racemic) [II-70] |
| 1000 to 10000 nM | < 1000 nM | +++ (≥350) | – | > 200% | – | – | – | – | – | COc1ccc(C(C)(C)C)cc1CN[C@H]1[C@H](C(C)(C)C)[C@@H](C(=O)O)N(C(=O)C2CCOC(C(C)C)C2)[C@H]1c1ccccc1 (some centres unmarked) [III-179] |
| 1000 to 10000 nM | < 1000 nM | – | – | > 200% | +++ (≥350) | – | – | – | – | COc1nc2ccccc2cc1CN[C@H]1[C@H](C(C)(C)C)[C@@H](C(=O)O)N(C(=O)C2CCOCC2)[C@H]1c1ccccc1C(C)C [II-598] |
| < 1000 nM | < 1000 nM | +++ (≥350) | – | > 200% | – | – | – | – | – | CCC(C)c1ccc(OC)c(CN[C@H]2[C@H](C(C)(C)C)[C@@H](C(=O)O)N(C(=O)C3CCCCC3)[C@H]2c2ccccc2)c1 (some centres unmarked) [III-168] |
| 1000 to 10000 nM | 1000 to 10000 nM | – | – | 100 to 200% | +++ (≥350) | – | – | – | – | COc1cccc(OC)c1CN[C@H]1[C@H](C(C)(C)C)[C@@H](C(=O)O)N(C(=O)C2CCCCC2)[C@H]1c1ccccc1 [II-407] |
| 1000 to 10000 nM | 1000 to 10000 nM | – | – | 100 to 200% | +++ (≥350) | – | – | – | – | COc1cnc(C2CC3CCC2C3)cc1CN[C@H]1[C@H](C(C)(C)C)[C@@H](C(=O)O)N(C(=O)C2CCCCC2)[C@H]1c1ccccc1 (some centres unmarked) [II-403] |
| – | – | – | – | – | – | 1000 to 10000 nM | < 1000 nM | +++ (≥350) | > 200% | COc1ccc(C(C)(C)C)cc1CN[C@H]1[C@H](C(C)(C)C)[C@@H](C(=O)O)N(C(=O)c2cc(-c3ccccc3)n(C)n2)[C@H]1c1ccccc1 [II-227] |
